Experimental data as given in publication PMC11035632, “Discovery of gefitinib-1,2,3-triazole derivatives against lung cancer via inducing apoptosis and inhibiting the colony formation” (Scientific Reports, 2024).

How the values were obtained:
[1] = system: NCI-H1299 cells; test: CCK-8 assay for cell proliferation and cytotoxicity, NCI-H1299; format: cell-based; details: Homo sapiens, CCK-8, 48 h
Experimental: Three types of lung cells were seeded into 96-well plate at a density of 5 × 10^3 cells per well at logarithmic growth phase and cultured in 37 °C. […] After that, cell viability was determined according to the instruction of the CCK-8 assay. Next, 10 μL of CCK-8 solution was added to each well of the plate and incubate the plate for 1–4 h in the incubator. The absorbance was measured at 450 nm using a microplate reader (Bio-Tek). The percentage of viable cells was measured using the following formula where three independent experiments were performed: [(A450 sample − A450blank)/(A450 control − A450blank)] × 100%.

[2] = system: H1299 cells; test: Wound healing assay; format: cell-based, human; details: 24 h
Experimental: H1299 cells were seeded in a 6-well plate, When the cell confluency reached 95%, a wound line was scratched using a 200 µl pipette tip, and then washed three times, fresh medium containing 7a or 7j (2, 4 and 8 μmol/L) was added, and the plate was incubated at 37 °C with 5% CO2. All the images were captured at 0 h and 24 h under an inverted microscope, and the quantification of scratches was analysed using Image J.

[3] = system: H1299 cells; test: DAPI staining for cell apoptosis; format: cell-based, human; details: H1299, 2, 4 and 8 μmol/L, 48 h
Experimental: In order to further verify the apoptotic activity induced by 7a and 7j in lung cancer cells, H1299 cells were treated with different concentrations of compounds 7a and 7j for 48 h, followed by DAPI staining. […] As the drug concentration increased, nuclear staining intensified, and even nuclear condensation and fragmentation phenomena were observed.
H1299 (1.5 × 10^4 ~ 2 × 10^4 /well) cells were seeded in 24-well plates for 24 h, and then treated with 7a or 7j at the concentrations of 2,4 and 8 μmol/L for 48 h., the cells were fixed for 30 min at room temperature in 4% paraformaldehyde and washed 3 times in PBS. Finally, every well was stained with DAPI (10 µg/mL, C0065, Solarbio) at room temperature for 30 min, and washed at least three times in PBS. The fluorescence microscope was used to observe the morphological changes of cell nuclei.

[4] = system: Kunming mice; test: Acute oral toxicity test in mice; details: mouse, in vivo
Description: SPF-grade healthy Kunming mice (weighing 20 ± 2 g) were purchased from Henan Skibbes Bio-technology Co., Ltd (Licence No.: SCXK (Yu) 2020–0005). The mice were provided free access to drinking water and adaptive feeding for 7 days.
Twenty Kunming mice (half male and half female) were randomly allocate into 4 groups: 7a-treated group (male), 7a-treated group (female), control group (male) and control group (female). The control groups were given PBS intragastric administration, while the 7a groups were given the 7a solution (400 mg/kg, respectively), once a day for 2 consecutive days. Body weight and appearance were monitored for a total period of 12 days (from the first day after treating with 7a). The mice were killed by cervical dislocation on the 12th day, and blood samples were collected for the biochemistry test. Then, we measured liver and kidney function indicators such as alanine aminotransferase (ALT), aspartate aminotransferase (AST), serum creatinine (CRE) and blood urea nitrogen (BUN) (Nanjing Jiancheng Bioengineering Institute, China). The organs (brain, heart, liver, spleen, lungs, kidneys stomach) were harvested, and fixed in 10% formaldehyde and paraffin-embedded for histological examination. Finally, these sections were stained with haematoxylin and eosin for light microscopic examination.

[5] = system: H1299 cells; test: Colony formation assay; format: cell-based, human; details: 7 days
Description: The colony formation assay is an important method for evaluating the ability of adherent cells to proliferate and form colonies on a plate, and it is widely used to assess cell proliferation. We also employed the colony formation assay to further confirm that compounds 7a and 7j can inhibit the proliferation of lung cancer cells, as shown in Fig. 5. After treating lung cancer cells with low, medium, and high concentrations (1, 2, 4 μmol/L) of compounds for 7 days, the number of cell colonies was counted to analyze the proliferation inhibition rate.
H1299 cells were seeded in six-well plates at a density of 500 cells per well and treated with 7a or 7j (1, 2 and 4 μmol/L) for 7 days. Then, cells were per-fixed with 4% paraformaldehyde for 30 min, stained with 0.1% Crystal violet for 15 min, and then washed with pure water. Taking a picture after the plates were air-dry. The clone formations number was counted with Image J.

[6] = system: L02 cells; test: Cytotoxicity / survival rate in normal hepatocytes L02; format: cell-based; details: for Survival rate %, 48 h: L02 cells
[7] = system: H1299 cells; test: Transwell migration assay; format: cell-based, human; details: H1299, 2, 4 and 8 μmol/L, 24 h, vs normal control, p < 0.01
Experimental: Transwell chamber migration assay is another important method to assess cell migration ability. Tumor cells are seeded in the chamber, and the number of tumor cells that pass through the membrane is counted to evaluate the migration ability of tumor cells.
Transwell assay was used to determine the migration ability of H1299 cells. Cells were starved in serum-free RPMI 1640 medium for 24 h, then detached and resuspended in serum-free RPMI 1640 medium. 5 × 10^5 cells/mL were inoculated into the upper chamber of a 24-well Transwell plate (Corning Inc., United States), with a volume of 100 µl per well. Then, 100 µL serum-free medium containing 7a or 7j (2, 4 and 8 μmol/L) was added to the upper chamber and the lower chamber was filled with 700 µL medium containing 20% FBS. After incubation for 24 h, H1299 cells on the upper membrane of the transwell were wiped off. The migrated cells were treated with 4% paraformaldehyde for 20 min, stained with 0.1% crystal violet for 20 min and washed three times with PBS. The number of H1299 cells that migrated to the underside of the membrane was counted under the inverted fluorescence microscope. Three randomly selected areas from each transwell were photographed and calculated using Image J.

[8] = system: H1299 cells; test: Flow cytometry detection of apoptosis (Annexin V-EGFP/PI); format: cell-based, human; details: 48 h
Experimental: H1299 cells were treated with different concentrations of 7a and 7j for 48 h. The cells were stained with Annexin-V and PI, and the proportion of apoptotic cells was detected using flow cytometry.
H1299 cells were seeded in a 6-well plate at a density of 1 × 10^5 cells/well and incubated for 24 h. On the following day, the medium was replaced with fresh medium containing 7a or 7j (2, 4 and 8 μmol/L) and cells were incubated for an additional 48 h. Cell apoptosis was detected using Annexin V-EGFP/PI apoptosis detection Kit by flow cytometry. Subsequently, 5 µl of […] Annexin V and 10 µl of PI was added to the cell suspension, gently vortexed, and incubated at room temperature in the dark for 20 min, then single-cell suspension was prepared followed by flow cytometry (BD Accuri™ C6 Plus).

COc1cc2ncnc(Nc3cccc(-c4cn(Cc5cc(F)ccc5Br)nn4)c3)c2cc1OCCCN1CCOCC1 [Compound 7a]
IC50 [1]: 3.94 ± 0.17 µM | migration closure rate ([2]; H1299, 2 μmol/L): 65.16 ± 7.88% | migration closure rate ([2]; H1299, 4 μmol/L): 50.12 ± 2.99% | migration closure rate ([2]; H1299, 8 μmol/L): 23.54 ± 3.65% | apoptotic morphology by DAPI staining [3]: exhibited typical apoptotic features | acute toxicity in mice [4]: low toxicity | formation of H1299 cell colonies ([5]; 1 μmol/L): markedly inhibit | colony formation ([5]; H1299, 4 μmol/L): almost completely suppressed | IC50 ([6]; Homo sapiens, normal hepatocytes L02): 18.9 ± 1.03 µM | Survival rate %, 48 h ([6]; 2 μM): 95.37 ± 2.98% | Survival rate %, 48 h ([6]; 4 μM): 71.97 ± 2.33% | Survival rate %, 48 h ([6]; 8 μM): 66.89 ± 1.52% | Survival rate %, 48 h ([6]; 16 μM): 63.25 ± 1.25% | Survival rate %, 48 h ([6]; 32 μM): 32.43 ± 0.95% | number of cells passing through the membrane to the lower surface of the chamber [7]: significantly decreased | total apoptotic cell proportion ([8]; H1299, 2 μmol/L): 19.03 ± 2.10% | total apoptotic cell proportion ([8]; H1299, 4 μmol/L): 28.73 ± 1.12% | total apoptotic cell proportion ([8]; H1299, 8 μmol/L): 50.1 ± 2.91%
